# US7629310B2, “RhoB as a suppressor of cancer cell growth, cell transformation, and metastasis” (University of South Florida, priority 2000, dated 2009)
# Tests used:
# [1] = tested on: H-Ras/NIH3T3 cells; experiment: 5-FU-induced apoptosis (Annexin V, flow cytometry) in H-Ras-transformed NIH3T3 cells; format: cell-based
# Protocol: Apoptosis Assay. Cells were collected by trypsinization, washed in wash buffer and stained with Annexin V and 7-AAD according to manufacturer's recommendation (PharMingen, San Diego, Calif.). Data acquisition and analysis was performed by the Flow Cytometry Core Facility at the H. Lee Moffitt Cancer Center (Tampa, Fla.). All the samples were performed in duplicate and a representative of 3 independent experiments were reported here.
# [2] = tested on: NIH3T3 cells; experiment: Anoikis assay in transfected NIH3T3 cells; format: cell-based; conditions: transfected NIH3T3, poly-HEMA plates, 12 or 24 hours, vs pcDNA3 (FIG. 10B)
# Protocol: (§1) Parental NIH3T3 cells (FIG. 10A) were transiently transfected with pcDNA3 vector, HRas61L, or Akt in the presence or absence of RhoA, RhoB, or pcDNA3 for 36 hours. The cells were then split and cultured in DMEM medium containing 2 μM 5-FU for another 48 hours. The cells were then examined for their susceptibility to 5-FU-induced apoptosis by Annexin V labeling and flow cytometry apoptosis assays as described in the Materials and Methods section. 36 hours after the transfection, a fraction of the cells from FIG. 10A were washed and re-suspended in serum-free medium and seeded into the pre-coated plates and examined for viability at different time points by Annex V and 7-AAD labeling, as shown in FIG. 10B. In FIG. 10B, the bars at each time point (0, 12, 24 hrs), left-to-right, correspond to PCD, H-Ras, AKT, RhoA, RhoB, Akt+RhoA, and Akt+RhoB, respectively. B16-F10 melanoma cells were transiently transfected with pcDNA3 vector, pcDNA-RhoA or pcDNA-RhoB; 20 hours later, the cells were examined for gene delivery by Western Blotting with anti-HA, as shown in FIG. 10C. 5×10^5 of the cells from FIG. 10A were injected into the tail veins of C57/B16 mice. The numbers of metastatic nodules per mouse lung represent an average±standard error from 5 mice per group. […]
# Anoikis Assay. […] 24 hrs later the cellular viability was determined by trypan blue exclusion.
# [3] = tested on: NIH3T3 cells; experiment: Focus formation assay in oncogene-transfected NIH3T3 cells; format: cell-based; design: inhibition of focus formation: concentration or dose not given beside the values; conditions: for # of foci formed: 4 weeks
# Protocol: Focus Formation Assay. NIH3T3 cells were seeded into 60-mm plates (1×10^6 cell/per plate) one day prior to gene transfection. […] Two days after transfection, the cells were seeded into 60-mm plates at a density of 2.5×10^3/per plate, and maintained in DMEM medium containing 1.5% CBS. The medium was changed every 3 days. 3-4 weeks later the cells were washed once with PBS and once with PBS/methanol (1:1), then washed with fresh anhydrous methanol and covered with crystal violet stain for 1 min at room temperature. Finally, the stain was displaced with water. The focus formation assay for A-549 cells was similarly performed as above except that following the transfection the cells were cultured in DMEM complete medium containing 400 μg/ml of geneticin (G418, […], Inc.). 3 weeks later, the cells were fixed with anhydrous methanol and stained with crystal violet; the plates were photographed. All the samples were performed in triplicate and a representative of 3 independent experiments was reported in the figure(s) and averages±standard deviation reported in the table.
# [4] = tested on: B16-F10 melanoma cells; experiment: Melanoma metastasis assay (B16-F10 cells injected into tail vein); format: in vivo, mouse; conditions: transfected B16-F10 cells, C57 black mice, after 3 weeks, pcDNA3 control 14.8±1.9
# Protocol: as §1, with “respectively.” for “respectively. B16-F10 melanoma cells were transiently transfected with pcDNA3 vector, pcDNA-RhoA or pcDNA-RhoB; 20 hours later, the cells were examined for gene delivery by Western Blotting with anti-HA, as shown in FIG. 10C. 5×10^5 of the cells from FIG. 10A were injected into the tail veins of C57/B16 mice. The numbers of metastatic nodules per mouse lung represent an average±standard error from 5 mice per group.”
# Melanoma Metastasis Assay. pcDNA3, pcDNA-RhoB and pcDNA-RhoA were transfected into B16-F10 cells similarly as described above. The cells were harvested 20 hours post-transfection; 5×10^5 cells from each group were analyzed for transfection efficiency by Western Blotting; another 5×10^5 cells were injected into the tail veins of C57/B16 mice (6 wk, F). The mice were sacrificed at the indicated intervals and the nodules growing in the lungs were counted.
# [5] = tested on: NIH3T3 cells; experiment: Cell proliferation, parental NIH3T3; format: cell-based; conditions: non-transformed NIH3T3, 0-96 hours
# Protocol: Cell Proliferation. Cells were collected and examined for cell number by trypan blue exclusion and hemocytometer counting under microscope at 0 h, 24 h, 48 h, 72 h and 96 h. All the samples were performed in triplicate and the averages of 3 independent experiments were reported.
# [6] = tested on: H-Ras/NIH3T3 cells; experiment: Anoikis assay in H-Ras-transformed NIH3T3 cells; format: cell-based; conditions: H-Ras-transformed NIH3T3, poly-HEMA plates
# Protocol: Anoikis Assay. Cells were collected by trypsinization, washed twice with PBS, and re-suspended in serum-free medium containing 0.5% BSA; 5.0×10^5 cells were then seeded in triplicates into 60-mm plates pre-coated with poly(2-hydroxyethylmethacrylate) (poly-HEMA, SIGMA) according to the data sheet of the agents. 24 hrs later the cellular viability was determined by trypan blue exclusion.
Molecule,"apoptosis ([1]; H-Ras-transformed NIH3T3, 5-FU 2.0 μM 48 hrs (FIG. 4B))",cell death induced by lack of attachment (anoikis) [2],# of foci formed ([3]; oncogene transfected: EGFR),# of foci formed ([3]; oncogene transfected: ErbB2),# of foci formed ([3]; oncogene transfected: H-Ras),# of foci formed ([3]; oncogene transfected: K-Ras),# of foci formed ([3]; oncogene transfected: N-Ras),# of foci formed ([3]; oncogene transfected: v-Src),metastatic colonies per lung [4],growth rate [5],anoikis [6],"colony (focus) formation ([3]; co-transfection with H-Ras61L, CA-PI3K or CA-Akt, 4 weeks (FIG. 8A))",inhibition of focus formation ([3]; focus formation by EGFR) [%],inhibition of focus formation ([3]; focus formation by ErbB2) [%],inhibition of focus formation ([3]; focus formation by H-Ras) [%],inhibition of focus formation ([3]; focus formation by K-Ras) [%],inhibition of focus formation ([3]; focus formation by N-Ras) [%],inhibition of focus formation ([3]; v-Src transformation) [%],"percent of apoptosis induced by 5-FU after transfection ([1]; H-Ras-transformed NIH3T3, transfected 24 hrs then 5-FU 48 hrs, control 16%) [%]"
"O=c1[nH]cc(F)c(=O)[nH]1 [5-FU, 5-fluorouracil]",16-18%,,,,,,,,,,,,,,,,,,
"RhoA: closely related family member sharing 86% sequence identity with RhoB; wild-type, in HA-tagged pcDNA3, transfected as control",,much lower rate of anoikis,47 ± 7,61 ± 11,63 ± 11,71 ± 13,46 ± 8,35 ± 7,13±4.5,enhanced the rate of growth,slightly protected from anoikis,,,,,,,,
RhoB: low molecular weight GTPase; wild-type RhoB subcloned into HA-tagged pcDNA3 and ectopically expressed by transfection,,significantly higher cell death,17 ± 3,19 ± 4,18 ± 3,16 ± 4,22 ± 3,26 ± 6,2±0.7,not affected,enhanced anoikis,significant inhibition of colony formation,56,59,62,61,39,15,37
